SMILES strings stand for the structures.

T1 sequence (P19156 2-1034 limits assumed): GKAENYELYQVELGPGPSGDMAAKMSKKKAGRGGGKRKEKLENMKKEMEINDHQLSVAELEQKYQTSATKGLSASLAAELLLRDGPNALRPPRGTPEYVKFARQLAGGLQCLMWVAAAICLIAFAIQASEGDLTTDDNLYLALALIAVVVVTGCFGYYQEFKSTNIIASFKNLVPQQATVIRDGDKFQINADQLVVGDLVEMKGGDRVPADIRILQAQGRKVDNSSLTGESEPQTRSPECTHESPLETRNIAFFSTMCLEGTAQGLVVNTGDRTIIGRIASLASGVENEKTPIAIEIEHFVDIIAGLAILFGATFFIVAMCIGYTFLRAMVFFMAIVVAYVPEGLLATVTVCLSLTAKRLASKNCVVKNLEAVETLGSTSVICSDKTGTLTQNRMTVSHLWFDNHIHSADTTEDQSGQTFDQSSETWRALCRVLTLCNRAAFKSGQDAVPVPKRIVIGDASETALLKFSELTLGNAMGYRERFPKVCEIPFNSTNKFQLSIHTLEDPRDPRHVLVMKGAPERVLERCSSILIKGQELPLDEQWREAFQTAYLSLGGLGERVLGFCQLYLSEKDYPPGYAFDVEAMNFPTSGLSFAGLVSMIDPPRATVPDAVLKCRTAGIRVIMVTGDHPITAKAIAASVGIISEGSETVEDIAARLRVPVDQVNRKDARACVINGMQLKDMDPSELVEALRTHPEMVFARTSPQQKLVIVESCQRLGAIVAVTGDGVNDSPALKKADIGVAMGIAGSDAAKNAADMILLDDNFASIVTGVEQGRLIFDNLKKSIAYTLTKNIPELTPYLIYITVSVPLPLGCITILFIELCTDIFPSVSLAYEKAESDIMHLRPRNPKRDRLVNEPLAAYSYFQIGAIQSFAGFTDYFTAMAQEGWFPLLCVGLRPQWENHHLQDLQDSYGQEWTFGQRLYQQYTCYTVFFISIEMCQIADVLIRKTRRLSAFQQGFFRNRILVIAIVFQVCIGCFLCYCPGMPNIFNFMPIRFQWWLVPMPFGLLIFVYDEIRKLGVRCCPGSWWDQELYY
T1 sequence (P18434 whole entry partner): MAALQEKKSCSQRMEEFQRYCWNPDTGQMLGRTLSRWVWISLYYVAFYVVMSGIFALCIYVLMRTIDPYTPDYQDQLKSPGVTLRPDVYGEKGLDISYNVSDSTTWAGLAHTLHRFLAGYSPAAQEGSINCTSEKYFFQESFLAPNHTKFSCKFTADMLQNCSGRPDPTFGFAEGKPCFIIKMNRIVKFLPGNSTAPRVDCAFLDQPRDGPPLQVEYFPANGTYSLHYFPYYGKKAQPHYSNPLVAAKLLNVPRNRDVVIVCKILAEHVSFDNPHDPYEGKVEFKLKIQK

This assay addresses T1, H+/K+-ATPase (Sus scrofa, UniProt P19156).
T1 construct: reaction buffer solution (60 mmol/l Tris-HCl buffer solution, pH 7.4) containing hog gastric vesicle; from tissue; host or cells: hog stomach (gastric vesicles, by centrifugation after Rabon et al. 1988)
The assay can be described thus: Inhibition of proton pump (H+/K+-ATPase) activity in hog gastric vesicles. Type of assay: biochemical. Conditions: K+ specific H+/K+-ATPase activity, pH 7.4, 37° C. for 40 minutes, malachite green. As to the method: 1) Preparation of Gastric Vesicles
Gastric vesicles were prepared from hog stomach by centrifugation (Edd C. Rabon et al., Preparation of Gastric H^+,K^+-ATPase, Methods in enzymology, vol. 157 Academic Press Inc., (1988), pp. 649-654). The protein contents of the prepared gastric vesicles were quantified with a Bicinchoninic Acid (BCA) kit.
2) Measurement of Effect of Inhibiting Proton Pump (H^+/K^+-ATPase) Activity
The effect of inhibiting proton pump activity by the compound of the present invention was measured in a 96-well plate. In this experiment, K^+ specific H^+/K^+-ATPase activity was calculated based on the difference between H^+/K^+-ATPase activity in the presence of K^+ ions and H^+/K^+-ATPase activity in the absence of K^+ ions. In the 96-well plate, to negative and positive control groups, 0.5% dimethylsulfoxide (DMSO) in buffer was added, and to the test groups, the compound of the present invention was added. All the analyses were conducted at room temperature with the reaction volume of 100 μl. To a reaction buffer solution (60 mmol/l Tris-HCl buffer solution, pH 7.4) containing hog gastric vesicle, DMSO and each concentration of compound were added, and then, 10 μl of a 10 mmol/l adenosine triphosphate tris buffer solution (60 mmol/l Tris-HCl buffer solution, pH 7.4) was added to initiate an enzyme reaction. The enzyme reaction was conducted at 37° C. for 40 minutes, 50 μl of a malachite green solution (0.12% malachite green solution, 5.8% ammonium molybdate and 11% tween 20 were mixed at a ratio of 100:67:2 in 6.2 N sulfuric acid) was added to stop the reaction, and 50 μl of 15.1% sodium citrate was added. During the reaction, the amount of monophosphate (Pi) was measured at 570 nm using micro plate reader (FLUOstar Omega, BMG Company). Inhibition rate (%) was measured from the activity values of the control groups and the activity values of various concentrations of the test compound, and IC50 of the test compound was calculated from each % inhibition value of the compound using Logistic 4-parameter function of Sigmaplot 8.0 program.
The molecule `CNC1CCc2c1cn(S(=O)(=O)c1cccc(Cl)c1)c2-c1cc(C)sc1C` (stereo not shown) [Example 35, 2-((3-chlorophenyl)sulfonyl)-1-(2,5-dimethylthiophen-3-yl)-N-methyl-2,4,5,6-tetrahydrocyclopenta[c]pyrrol-4-amine] came in with an IC50 of 840 nM.

`CNC1CCc2c1cn(S(=O)(=O)c1ccccc1Cl)c2-c1cc(Cl)ccc1Cl` (stereo not shown) [Example 50, 2-((2-chlorophenyl)sulfonyl)-1-(2,5-dichlorophenyl)-N-methyl-2,4,5,6-tetrahydrocyclopenta[c]pyrrol-4-amine] registered an IC50 of 1050 nM.

`CNC1CCc2c1cn(S(=O)(=O)c1cccc(OC)c1)c2-c1ccc(C)cc1F` (stereo not shown) [Example 54, 1-(2-fluoro-4-methylphenyl)-2-((3-methoxyphenyl)sulfonyl)-N-methyl-2,4,5,6-tetrahydrocyclopenta[c]pyrrol-4-amine] came in with an IC50 of 410 nM.

Take `CNC1CCc2c1cn(S(=O)(=O)c1cccc(OC)c1)c2-c1cc(Cl)ccc1Cl` (stereo not shown) [Example 55, 1-(2,5-dichlorophenyl)-2-((3-methoxyphenyl)sulfonyl)-N-methyl-2,4,5,6-tetrahydrocyclopenta[c]pyrrol-4-amine]: the IC50 was determined as 590 nM.

Take `CNC1CCc2c1cn(Cc1cccc(C)c1)c2-c1ccccc1F` (stereo not shown) [Example 110, 1-(2-fluorophenyl)-N-methyl-2-(3-methylbenzyl)-2,4,5,6-tetrahydrocyclopenta[c]pyrrol-4-amine]: the IC50 is 2890 nM.

`CNC1CCc2c1cn(S(=O)(=O)c1cccc(Cl)c1C)c2-c1ccccc1F` (stereo not shown) [Example 63, 2-((3-chloro-2-methylphenyl)sulfonyl)-1-(2-fluorophenyl)-N-methyl-2,4,5,6-tetrahydrocyclopenta[c]pyrrol-4-amine] displayed an IC50 of 610 nM.

`CNC1CCc2c1cn(S(=O)(=O)c1cccc(Cl)c1)c2-c1ccc(C(=O)OC)cc1` (stereo not shown) [Example 15, methyl 4-(2-((3-chlorophenyl)sulfonyl)-4-(methylamino)-2,4,5,6-tetrahydrocyclopenta[c]pyrrol-1-yl)benzoate] had an IC50 of 2900 nM.

Regarding `CNC1CCc2c1cn(S(=O)(=O)c1cc(Cl)cc(Cl)c1)c2-c1ccccc1F` (stereo not shown) [Example 77, 2-((3,5-dichlorophenyl)sulfonyl)-1-(2-fluorophenyl)-N-methyl-2,4,5,6-tetrahydrocyclopenta[c]pyrrol-4-amine], half-maximal inhibition (IC50) required 410 nM.

Consider `CNC1CCCc2c1cn(S(=O)(=O)c1cccnc1)c2-c1ccccc1C` (stereo not shown) [Example 132, N-methyl-2-(pyridin-3-ylsulfonyl)-1-(o-tolyl)-4,5,6,7-tetrahydro-2H-isoindole-4-amine], for which the IC50 amounted to 8000 nM.

`CNC1CCc2c1cn(S(=O)(=O)c1ccc(F)cc1Cl)c2-c1ccccc1F` (stereo not shown) [Example 66, 2-((2-chloro-4-fluorophenyl)sulfonyl)-1-(2-fluorophenyl)-N-methyl-2,4,5,6-tetrahydrocyclopenta[c]pyrrol-4-amine] displayed a 50% inhibitory concentration (IC50) of 500 nM.

On to `CNC1CCCc2c1cn(S(=O)(=O)c1cccnc1)c2-c1ccc(F)cc1F` (stereo not shown) [Example 135, 1-(2,4-difluorophenyl)-N-methyl-2-(pyridin-3-ylsulfonyl)-4,5,6,7-tetrahydro-2H-isoindole-4-amine], for which 5000 nM corresponded to half-maximal inhibition (IC50).

Consider `CNC1CCCc2c1cn(S(=O)(=O)c1cccc(N(C)C)c1)c2-c1ccccc1F` (stereo not shown) [Example 130, 2-((3-(dimethylamino)phenyl)sulfonyl)-1-(2-fluorophenyl)-N-methyl-4,5,6,7-tetrahydro-2H-isoindole-4-amine], for which the half-maximal inhibitory concentration (IC50) is 1500 nM.

`CNC1CCc2c1cn(S(=O)(=O)c1cnc3onc(C)c3c1)c2-c1ccccc1F` (stereo not shown) [Example 97, 1-(2-fluorophenyl)-N-methyl-2-((3-methylisoxazolo[5,4-b]pyridin-5-yl)sulfonyl-)2,4,5,6-tetrahydrocyclopenta[c]pyrrol-4-amine] displayed an IC50 of 2820 nM.

On to `CNC1CCCc2c1cn(S(=O)(=O)c1cccc(Cl)c1)c2-c1ccc(-c2ccccc2)cc1` (stereo not shown) [Example 127, 1-([1,1′-biphenyl]-4-yl)-2-((3-chlorophenyl)sulfonyl)-N-methyl-4,5,6,7-tetrahydro-2H-isoindole-4-amine], for which the IC50 is 4530 nM.

Molecule `CN(C)C1CCCc2c1cn(S(=O)(=O)c1cccc(F)c1)c2-c1ccccc1F` (stereo not shown) [Example 136, 1-(2-fluorophenyl)-2-((3-fluorophenyl)sulfonyl)-N,N-dimethyl-4,5,6,7-tetrahydro-2H-isoindole-4-amine] registered an IC50 of 15000 nM.

The molecule `CNC1CCc2c1cn(S(=O)(=O)c1cccc(Cl)c1)c2-c1ccc(N2CCCC2)nc1` (stereo not shown) [Example 40] displayed an IC50 of 7690 nM.

For `CNC1CCc2c1cn(S(=O)(=O)c1ccc(F)cc1)c2-c1ccc(C)cc1F` (stereo not shown) [Example 60, 1-(2-fluoro-4-methylphenyl)-2-((4-fluorophenyl)sulfonyl)-N-methyl-2,4,5,6-tetrahydrocyclopenta[c]pyrrol-4-amine], the midpoint of inhibition, the IC50, lay at 420 nM.

Turning to `CNC1CCc2c1cn(S(=O)(=O)c1cc(Cl)cc(Cl)c1)c2-c1ccc(C)cc1F` (stereo not shown) [Example 78, 2-((3,5-dichlorophenyl)sulfonyl)-1-(2-fluoro-4-methylphenyl)-N-methyl-2,4,5,6-tetrahydrocyclopenta[c]pyrrol-4-amine], the IC50 is 460 nM.

The molecule `CNC1CCc2c1cn(S(=O)(=O)c1cccc(Cl)c1)c2-c1cccc(F)c1` (stereo not shown) [Example 9, 2-((3-chlorophenyl)sulfonyl)-1-(3-fluorophenyl)-N-methyl-2,4,5,6-tetrahydrocyclopenta[c]pyrrol-4-amine] registered an IC50 of 830 nM.

With `CNC1CCc2c1cn(S(=O)(=O)c1cccc(C)c1)c2-c1ccc(C)cc1F` (stereo not shown) [Example 52, 1-(2-fluoro-4-methylphenyl)-N-methyl-2-(m-tolylsulfonyl)-2,4,5,6-tetrahydrocyclopenta[c]pyrrol-4-amine], inhibition was half-maximal at 350 nM (IC50).

`CNC1CCc2c1cn(S(=O)(=O)c1nccn1C)c2-c1ccccc1F` (stereo not shown) [Example 101, 1-(2-fluorophenyl)-N-methyl-2-((1-methyl-1H-imidazol-2-yl)sulfonyl)-2,4,5,6-tetrahydrocyclopenta[c]pyrrol-4-amine] had an IC50 of 18700 nM.

Regarding `CNC1CCc2c1cn(S(=O)(=O)c1ccccc1Cl)c2-c1ccc(C)cc1F` (stereo not shown) [Example 48, 2-((2-chlorophenyl)sulfonyl)-1-(2-fluoro-4-methylphenyl)-N-methyl-2,4,5,6-tetrahydrocyclopenta[c]pyrrol-4-amine], the IC50 came out at 1000 nM.

For `CNC1CCc2c1cn(S(=O)(=O)c1cccc(Cl)c1)c2C` (stereo not shown) [Example 2, 2-((3-chlorophenyl)sulfonyl)-N,1-dimethyl-2,4,5,6-tetrahydrocyclopenta[c]pyrrol-4-amine], it took 10000 nM to reach half-maximal inhibition (IC50).

Molecule `CNC1CCc2c1cn(S(=O)(=O)c1cc(Cl)c(Cl)cc1Cl)c2-c1ccc(C)cc1F` (stereo not shown) [Example 82, 1-(2-fluoro-4-methylphenyl)-N-methyl-2-((2,4,5-trichlorophenyl)sulfonyl)-2,4,5,6-tetrahydrocyclopenta[c]pyrrol-4-amine] showed an IC50 of 660 nM.

`CNC1CCc2c1cn(S(=O)(=O)c1ccccc1OC)c2-c1ccccc1F` (stereo not shown) [Example 46, 1-(2-fluorophenyl)-2-((2-methoxyphenyl)sulfonyl)-N-methyl-2,4,5,6-tetrahydrocyclopenta[c]pyrrol-4-amine]: it took 3270 nM to reach half-maximal inhibition (IC50).

As a reminder, the IC50 is the point on the concentration scale where inhibition reaches its midpoint. Higher therefore signals lower potency.
